Test results taken from patent US20230265116A1, “DEGRADATION OF (EGFR) BY CONJUGATION OF EGFR INHIBITORS WITH E3 LIGASE LIGAND AND METHODS OF USE” (BEIGENE, LTD., priority 2020, published 2023).

Tests used:
[1] = target: T1, EGFR L858R/T790M (H1975-clone #36, homozygous) (Homo sapiens, UniProt P00533, L858R/T790M); assay: EGFR degradation HTRF assay, H1975-clone #36 cells; type: cell-based; conditions: H1975 #36, 16h treatment; for Dmax: NCI-H1975, maximum percentage of degradation
T1 construct: designed to specifically target WT EGFR but preserve the L858R/T790M copy; host or cells: H1975-clone #36
T1 sequence (P00533 25-1210 T790M/L858R): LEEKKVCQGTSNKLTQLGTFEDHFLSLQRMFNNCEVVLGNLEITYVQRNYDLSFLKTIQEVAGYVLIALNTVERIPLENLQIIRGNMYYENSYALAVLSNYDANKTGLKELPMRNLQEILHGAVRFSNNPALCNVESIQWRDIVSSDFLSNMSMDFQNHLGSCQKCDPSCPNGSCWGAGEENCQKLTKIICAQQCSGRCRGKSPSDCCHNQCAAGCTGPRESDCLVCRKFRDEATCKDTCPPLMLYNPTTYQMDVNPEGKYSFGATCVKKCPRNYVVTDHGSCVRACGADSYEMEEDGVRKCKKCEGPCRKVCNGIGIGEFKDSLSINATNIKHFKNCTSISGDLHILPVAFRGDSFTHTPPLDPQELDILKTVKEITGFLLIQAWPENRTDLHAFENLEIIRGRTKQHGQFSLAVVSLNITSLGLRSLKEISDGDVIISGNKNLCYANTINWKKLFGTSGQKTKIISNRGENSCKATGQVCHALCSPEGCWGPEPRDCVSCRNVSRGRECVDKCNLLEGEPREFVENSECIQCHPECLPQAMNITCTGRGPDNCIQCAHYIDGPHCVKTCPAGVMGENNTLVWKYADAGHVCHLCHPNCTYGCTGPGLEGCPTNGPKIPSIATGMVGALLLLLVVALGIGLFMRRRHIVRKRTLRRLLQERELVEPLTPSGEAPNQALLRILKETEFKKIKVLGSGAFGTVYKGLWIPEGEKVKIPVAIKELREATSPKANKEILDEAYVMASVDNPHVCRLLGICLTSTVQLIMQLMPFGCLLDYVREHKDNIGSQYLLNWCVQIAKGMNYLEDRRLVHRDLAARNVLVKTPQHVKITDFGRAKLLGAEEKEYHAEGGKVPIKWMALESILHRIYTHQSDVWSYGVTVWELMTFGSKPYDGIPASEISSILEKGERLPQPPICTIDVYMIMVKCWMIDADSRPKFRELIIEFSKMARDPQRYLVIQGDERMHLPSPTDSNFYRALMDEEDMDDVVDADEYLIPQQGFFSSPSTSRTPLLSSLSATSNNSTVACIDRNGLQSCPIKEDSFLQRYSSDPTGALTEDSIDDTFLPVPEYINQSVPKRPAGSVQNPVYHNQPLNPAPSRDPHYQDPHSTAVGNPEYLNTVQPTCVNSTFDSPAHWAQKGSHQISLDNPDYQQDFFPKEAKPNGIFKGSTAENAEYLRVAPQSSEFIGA
Description: H1975-clone #36(L858R/T790M). H1975 cell heterozygously (from ATCC) contains alleles of WT and L858R/T790M EGFR. H1975-clone #36(L858R/T790M) was generated by gene knockout, in which the EGFR targeting sgRNA was designed to specifically target WT EGFR but preserve the L858R/T790M copy. Followed by the gene knockout, the edited H1975 cells were seeded in 96 well plates at the concentration of 1 cell/well, cultured for about 2 weeks to allow single clones formation. The formed clones were screened by DNA sequencing for the desired edition. H1975-clone #36 was confirmed as a homozygous L858R/T790M EGFR clone.
(§1) BaF3 WT(wild type), BaF3-LTC(L858R/T790M/C797S) and BaF3-DTC(Del19/T790M/C797S) cells are treated with compounds diluted in 0.2% DMSO cell culture medium and incubate for 16h, 37° C., 5% CO2, H1975-#36, H1975-#28, H1975-#23 and HCC827 cells are treated with compounds diluted in 0.2% DMSO cell culture medium on day 2, incubate for 16h, 37° C., 5% CO2.the final concentriation of compounds in all assay is start with 10 uM, 5-fold dilution, total 8 doses were included.
(§2) After 16h treatment, add HTRF lysis buffer to each well; seal the plate and incubate 1 hour at room temperature on a plate shaker; Once the cells are lysed, 16 μL of cell lysate are transferred to a PE 384-well HTRF detection plate; 4 μL of pre-mixed HTRF antibodies are added to each well; Cover the plate with a plate sealer, spin 1000 rpm for 1 min, Incubate overnight at room temperature; Read on BMG PheraStar with HTRF protocol (337 nm-665 nm-620 nm).
(§3) The inhibition (degradation) percentage of the compound was calculated by the following equation: Inhibition percentage of Compound=100-100×(Signal-low control)/(High control-low control), wherein signal=each test compound group
(§4) High control=Cell group with added DMSO and without compound, indicating microplate readings without EGFR degradation;
(§5) Dmax is the maximum percentage of inhibition (degradation).
(§6) The IC50 (DC50) value of a compound can be obtained by fitting the following equation
(§7) Y=Bottom+(TOP−Bottom)/(1+((IC50/X)^hillslope))
(§8) Wherein, X and Y are known values, and IC50, Hillslope, Top and Bottom are the parameters obtained by fitting with software. Y is the inhibition percentage (calculated from the equation), X is the concentration of the compound; IC50 is the concentration of the compound when the 50% inhibition is reached. The smaller the IC50 value is, the stronger the inhibitory ability of the compound is. Vice versa, the higher the IC50 value is, the weaker the inhibitory ability of the compound is; Hillslope represents the slope of the fitted curve, generally around 1*; Bottom represents the minimum value of the curve obtained by data fitting, which is generally 0%±20%; Top represents the maximum value of the curve obtained by data fitting, which is generally 100%±20%. The experimental data were fitted by calculating and analyzing with Dotmatics data analysis software.

EGFR (HCC827 cells) = target: T2, EGFR (HCC827 cells) (Homo sapiens, UniProt P00533, DEL746-750); assay: EGFR degradation HTRF assay, HCC827 cells; type: cell-based; conditions: HCC827, 16h treatment; for Dmax: maximum percentage of degradation
T2 construct: endogenous in cells; host or cells: HCC827
T2 sequence (P00533 with tags, fused parts or gaps DEL746-750): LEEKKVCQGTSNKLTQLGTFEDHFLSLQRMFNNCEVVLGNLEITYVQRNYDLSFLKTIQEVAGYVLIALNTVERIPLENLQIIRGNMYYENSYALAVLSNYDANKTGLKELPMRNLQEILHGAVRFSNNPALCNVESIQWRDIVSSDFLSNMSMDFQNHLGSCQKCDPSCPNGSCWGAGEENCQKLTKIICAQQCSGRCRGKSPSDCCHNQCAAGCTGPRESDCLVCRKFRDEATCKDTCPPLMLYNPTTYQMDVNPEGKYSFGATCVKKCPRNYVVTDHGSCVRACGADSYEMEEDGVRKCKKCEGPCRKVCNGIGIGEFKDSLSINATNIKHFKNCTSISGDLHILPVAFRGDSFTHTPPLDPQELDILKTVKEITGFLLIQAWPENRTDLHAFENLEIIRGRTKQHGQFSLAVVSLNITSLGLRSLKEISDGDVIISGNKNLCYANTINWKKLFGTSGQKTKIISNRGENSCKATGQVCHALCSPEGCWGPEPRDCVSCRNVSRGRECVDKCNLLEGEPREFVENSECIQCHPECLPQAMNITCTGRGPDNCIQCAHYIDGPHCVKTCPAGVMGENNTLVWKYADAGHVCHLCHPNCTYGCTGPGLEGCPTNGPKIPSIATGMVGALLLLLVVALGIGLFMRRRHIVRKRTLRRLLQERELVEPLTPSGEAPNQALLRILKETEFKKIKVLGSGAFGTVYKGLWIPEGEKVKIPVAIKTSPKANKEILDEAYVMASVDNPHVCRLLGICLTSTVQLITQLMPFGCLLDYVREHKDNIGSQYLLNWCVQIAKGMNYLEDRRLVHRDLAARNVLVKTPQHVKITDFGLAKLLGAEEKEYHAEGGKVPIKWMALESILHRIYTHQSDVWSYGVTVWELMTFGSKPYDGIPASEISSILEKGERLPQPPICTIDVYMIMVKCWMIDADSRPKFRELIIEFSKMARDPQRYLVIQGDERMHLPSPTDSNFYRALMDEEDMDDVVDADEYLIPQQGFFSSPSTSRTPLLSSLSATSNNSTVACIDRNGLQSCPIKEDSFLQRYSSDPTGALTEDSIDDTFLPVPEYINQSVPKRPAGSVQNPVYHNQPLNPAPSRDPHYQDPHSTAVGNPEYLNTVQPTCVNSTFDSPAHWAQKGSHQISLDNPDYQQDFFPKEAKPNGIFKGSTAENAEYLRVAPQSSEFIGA
Description: as §1, §2, §3, §4, §5, §6, §7, §8

COc1cc(N2CCN(CC3CCN(c4ccc(N5CCC(=O)NC5=O)cc4)CC3)CC2)c(C)cc1Nc1ncc(Br)c(Nc2ccc3nccnc3c2P(C)(C)=O)n1 [Example 95, 1-(4-(4-((4-(4-((5-bromo-4-((5-(dimethylphosphoryl)quinoxalin-6-yl)amino)pyrimidin-2-yl)amino)-5-methoxy-2-methylphenyl)piperazin-1-yl)methyl)piperidin-1-yl)phenyl)dihydropyrimidine-2,4(1H,3H)-dione]
DC50 [1]: 9030 nM | Dmax [1]: 61.6% | DC50 (EGFR (HCC827 cells)): 147 nM | Dmax (EGFR (HCC827 cells)): 71.3%

COc1cc(N2CCC(N(C)CC3CCN(c4ccc(N5CCC(=O)NC5=O)c(C)c4)CC3)CC2)c(C)cc1Nc1ncc(Br)c(Nc2ccc3nccnc3c2P(C)(C)=O)n1 [Example 83, 1-(4-(4-(((1-(4-((5-bromo-4-((5-(dimethylphosphoryl)quinoxalin-6-yl)amino)pyrimidin-2-yl)amino)-5-methoxy-2-methylphenyl)piperidin-4-yl)(methyl)amino)methyl)piperidin-1-yl)-2-methylphenyl)dihydropyrimidine-2,4(1H,3H)-dione]
DC50 [1]: > 10000 nM | Dmax [1]: 14.7% | DC50 (EGFR (HCC827 cells)): 20.3 nM | Dmax (EGFR (HCC827 cells)): 74.2%

COc1cc(N2CCC(N3CCN(C(=O)C4CCN(CC5CCN(c6ccc7c(c6)C(=O)N(C6CCC(=O)NC6=O)C7=O)CC5)CC4)CC3)CC2)ccc1Nc1ncc(Cl)c(Nc2ccccc2N(C)S(C)(=O)=O)n1 (stereo not drawn) [Example 129, N-(2-((5-chloro-2-((4-(4-(4-(1-((1-(2-(2,6-dioxopiperidin-3-yl)-1,3-dioxoisoindolin-5-yl)piperidin-4-yl)methyl)piperidine-4-carbonyl)piperazin-1-yl)piperidin-1-yl)-2-methoxyphenyl)amino)pyrimidin-4-yl)amino)phenyl)-N-methylmethanesulfonamide]
DC50 [1]: 9.29 nM | Dmax [1]: 85.4% | DC50 (EGFR (HCC827 cells)): 11.1 nM | Dmax (EGFR (HCC827 cells)): 87.2%

COc1cc(N2CCN(CCC3CCN(c4ccc(C5CCC(=O)NC5=O)cc4)CC3)CC2)c(C)cc1Nc1ncc(Br)c(Nc2ccc3nccnc3c2P(C)(C)=O)n1 (stereo not drawn) [Example 90, 3-(4-(4-(2-(4-(4-((5-bromo-4-((5-(dimethylphosphoryl)quinoxalin-6-yl)amino)pyrimidin-2-yl)amino)-5-methoxy-2-methylphenyl)piperazin-1-yl)ethyl)piperidin-1-yl)phenyl)piperidine-2,6-dione]
DC50 [1]: 6.53 nM | Dmax [1]: 77.5% | DC50 (EGFR (HCC827 cells)): 12.8 nM | Dmax (EGFR (HCC827 cells)): 81.4%

COc1cc(N2CCC(N3CCN(C(=O)CN4CCN(c5ccc6c(c5)C(=O)N(C5CCC(=O)NC5=O)C6)CC4)CC3)CC2)ccc1Nc1ncc(Cl)c(Nc2ccccc2N(C)S(C)(=O)=O)n1 (stereo not drawn) [Example 130, N-(2-((5-chloro-2-((4-(4-(4-(2-(4-(2-(2,6-dioxopiperidin-3-yl)-3-oxoisoindolin-5-yl)piperazin-1-yl)acetyl)piperazin-1-yl)piperidin-1-yl)-2-methoxyphenyl)amino)pyrimidin-4-yl)amino)phenyl)-N-methylmethanesulfonamide]
DC50 (EGFR (HCC827 cells)): 45.8 nM | Dmax (EGFR (HCC827 cells)): 80.8%

COc1cc(N2CCC(N3CCN(CCC4CCN(c5ccc(C6CCC(=O)NC6=O)cc5)CC4)CC3)CC2)ccc1Nc1ncc(Cl)c(Nc2ccccc2N(C)S(C)(=O)=O)n1 (stereo not drawn) [Example 121, N-(2-((5-chloro-2-((4-(4-(4-(2-(1-(4-(2,6-dioxopiperidin-3-yl)phenyl)piperidin-4-yl)ethyl)piperazin-1-yl)piperidin-1-yl)-2-methoxyphenyl)amino)pyrimidin-4-yl)amino)phenyl)-N-methylmethanesulfonamide]
DC50 (EGFR (HCC827 cells)): 19 nM | Dmax (EGFR (HCC827 cells)): 80.8%

COc1cc(N2CCC(N(C)CCC3CCN(c4ccc(C5CCC(=O)NC5=O)cc4)CC3)CC2)c(C)cc1Nc1ncc(Br)c(Nc2ccc3nccnc3c2P(C)(C)=O)n1 (stereo not drawn) [Example 78, 3-(4-(4-(2-((1-(4-((5-bromo-4-((5-(dimethylphosphoryl)quinoxalin-6-yl)amino)pyrimidin-2-yl)amino)-5-methoxy-2-methylphenyl)piperidin-4-yl)(methyl)amino)ethyl)piperidin-1-yl)phenyl)piperidine-2,6-dione]
DC50 (EGFR (HCC827 cells)): 15.2 nM | Dmax (EGFR (HCC827 cells)): 70.1%

COc1cc(N2CCN(CCCOc3ccc(OC4CCC(=O)NC4=O)cc3)CC2)c(C)cc1Nc1ncc(Br)c(Nc2ccc3nccnc3c2P(C)(C)=O)n1 (stereo not drawn) [Example 92, 3-(4-(3-(4-(4-((5-bromo-4-((5-(dimethylphosphoryl)quinoxalin-6-yl)amino)pyrimidin-2-yl)amino)-5-methoxy-2-methylphenyl)piperazin-1-yl)propoxy)phenoxy)piperidine-2,6-dione]
DC50 (EGFR (HCC827 cells)): 306 nM | Dmax (EGFR (HCC827 cells)): 76.8%

COc1cc(N2CCC(N3CCN(CC4CCC(c5ccc(N6CCC(=O)NC6=O)cc5)CC4)CC3)CC2)ccc1Nc1ncc(Cl)c(Nc2ccccc2P(C)(C)=O)n1 (stereo not drawn) [Example 110, 1-(4-(4-((4-(1-(4-((5-chloro-4-((2-(dimethylphosphoryl)phenyl)amino)pyrimidin-2-yl)amino)-3-methoxyphenyl)piperidin-4-yl)piperazin-1-yl)methyl)cyclohexyl)phenyl)dihydropyrimidine-2,4(1H,3H)-dione]
DC50 (EGFR (HCC827 cells)): 49.6 nM | Dmax (EGFR (HCC827 cells)): 81.2%

COc1cc(N2CCC(N(C)CCC3CCN(c4ccc(N5CCC(=O)NC5=O)cc4)CC3)CC2)c(C)cc1Nc1ncc(Br)c(Nc2ccc3nccnc3c2P(C)(C)=O)n1 [Example 80, 1-(4-(4-(2-((1-(4-((5-bromo-4-((5-(dimethylphosphoryl)quinoxalin-6-yl)amino)pyrimidin-2-yl)amino)-5-methoxy-2-methylphenyl)piperidin-4-yl)(methyl)amino)ethyl)piperidin-1-yl)phenyl)dihydropyrimidine-2,4(1H,3H)-dione]
DC50 (EGFR (HCC827 cells)): 35.9 nM | Dmax (EGFR (HCC827 cells)): 74.4%

COc1cc(N2CCN(CCOc3ccc(C4CCC(=O)NC4=O)cc3)CC2)c(C)cc1Nc1ncc(Br)c(Nc2ccc3nccnc3c2P(C)(C)=O)n1 (stereo not drawn) [Example 91, 3-(4-(2-(4-(4-((5-bromo-4-((5-(dimethylphosphoryl)quinoxalin-6-yl)amino)pyrimidin-2-yl)amino)-5-methoxy-2-methylphenyl)piperazin-1-yl)ethoxy)phenyl)piperidine-2,6-dione]
DC50 (EGFR (HCC827 cells)): 90.4 nM | Dmax (EGFR (HCC827 cells)): 73.5%

COc1cc(N2CCC(N3CCN(CCCOc4ccc(OC5CCC(=O)NC5=O)cc4)CC3)CC2)ccc1Nc1ncc(Cl)c(Nc2ccccc2P(C)(C)=O)n1 (stereo not drawn) [Example 109, 3-(4-(3-(4-(1-(4-((5-chloro-4-((2-(dimethylphosphoryl)phenyl)amino)pyrimidin-2-yl)amino)-3-methoxyphenyl)piperidin-4-yl)piperazin-1-yl)propoxy)phenoxy)piperidine-2,6-dione]
DC50 (EGFR (HCC827 cells)): 189 nM | Dmax (EGFR (HCC827 cells)): 79.6%

COc1cc(N2CCC(N(C)CCc3ccc(C4CCC(=O)NC4=O)cc3)CC2)c(C)cc1Nc1ncc(Br)c(Nc2ccc3nccnc3c2P(C)(C)=O)n1 (stereo not drawn) [Example 75, 3-(4-(2-((1-(4-((5-bromo-4-((5-(dimethylphosphoryl)quinoxalin-6-yl)amino)pyrimidin-2-yl)amino)-5-methoxy-2-methylphenyl)piperidin-4-yl)(methyl)amino)ethyl)phenyl)piperidine-2,6-dione]
DC50 (EGFR (HCC827 cells)): 50.6 nM | Dmax (EGFR (HCC827 cells)): 72.1%

COc1cc(N2CCC(N(C)CCOc3ccc(C4CCC(=O)NC4=O)cc3)CC2)c(C)cc1Nc1ncc(Br)c(Nc2ccc3nccnc3c2P(C)(C)=O)n1 (stereo not drawn) [Example 76, 3-(4-(2-((1-(4-((5-bromo-4-((5-(dimethylphosphoryl)quinoxalin-6-yl)amino)pyrimidin-2-yl)amino)-5-methoxy-2-methylphenyl)piperidin-4-yl)(methyl)amino)ethoxy)phenyl)piperidine-2,6-dione]
DC50 (EGFR (HCC827 cells)): 30.5 nM | Dmax (EGFR (HCC827 cells)): 77.1%
